Experimental data as given in PMC6423499, “SPR-Measured Dissociation Kinetics of PROTAC Ternary Complexes Influence Target Degradation Rate” (ACS Chemical Biology, 2019).
Read-outs that look alike come from different tables or passages of the source. Marks after values point to notes of the source that are not given here.

How the values were obtained:
VHL + Brd2BD2G382E = molecular target: T1, VHL + Brd2BD2G382E (Homo sapiens, UniProt P25440+P40337, G382E); experiment: SPR ternary binding of PROTAC:Brd2^BD2 G382E point mutant complex to immobilized VHL
T1 construct: VHL (54-213); Brd2BD2 (344-455); His6 with TEV cleavage site (N, cleaved yes); made in house; host or cells: E. coli BL21(DE3) (VCB)

VHL + Brd4^BD1 [1] = molecular target: T2, VHL + Brd4^BD1 (Homo sapiens, UniProt O60885+P40337); experiment: SPR ternary binding of PROTAC:Brd4^BD1 complex to immobilized VHL
T2 construct: VHL (54-213); Brd4BD1 (44-168); His6 with TEV cleavage site (N, cleaved yes); made in house; host or cells: E. coli BL21(DE3) (VCB)

Brd4^BD2 = Brd4^BD2 (Homo sapiens, UniProt O60885); experiment: Reversed-format SPR, PROTAC binary binding to immobilized Brd4^BD2; conditions: qualitative, Figures S4 and S6
VHL + Brd2^BD2 [2] = molecular target: T3, VHL + Brd2^BD2 (Homo sapiens, UniProt P25440+P40337); experiment: SPR ternary binding of PROTAC:Brd2^BD2 complex to immobilized VHL
T3 construct: VHL (54-213); Brd2BD2 (344-455); His6 with TEV cleavage site (N, cleaved yes); made in house; host or cells: E. coli BL21(DE3) (VCB)

VHL + Brd3^BD1 [3] = molecular target: T4, VHL + Brd3^BD1 (Homo sapiens, UniProt P40337+Q15059); experiment: SPR ternary binding of PROTAC:Brd3^BD1 complex to immobilized VHL
T4 construct: VHL (54-213); Brd3BD1 (24-144); His6 with TEV cleavage site (N, cleaved yes); made in house; host or cells: E. coli BL21(DE3) (VCB)

VHL + Brd2^BD1 [4] = molecular target: T5, VHL + Brd2^BD1 (Homo sapiens, UniProt P25440+P40337); experiment: SPR ternary binding of PROTAC:Brd2^BD1 complex to immobilized VHL
T5 construct: VHL (54-213); Brd2BD1 (71-194); His6 with TEV cleavage site (N, cleaved yes); made in house; host or cells: E. coli BL21(DE3) (VCB)

VHL + Brd4^BD2 [5] = conditions: cited from earlier work; for Kd: ternary + Brd4^BD2, ITC at 298.15 K; for ΔΔG (ITC) / α (ITC): ternary + Brd4^BD2, ITC
VHL + Brd4BD2G386E = molecular target: T6, VHL + Brd4BD2G386E (Homo sapiens, UniProt O60885+P40337, G386E); experiment: SPR ternary binding of PROTAC:Brd4^BD2 G386E point mutant complex to immobilized VHL
T6 construct: VHL (54-213); Brd4BD2 (333-460); His6 with TEV cleavage site (N, cleaved yes); made in house; host or cells: E. coli BL21(DE3) (VCB)

VHL + Brd4^BD2 [6] = molecular target: T7, VHL + Brd4^BD2 (Homo sapiens, UniProt O60885+P40337); experiment: SPR ternary binding of PROTAC:Brd4^BD2 complex to immobilized VHL; conditions: for α (cooperativity, KD^binary/KD^ternary) / ΔΔG (ΔG^ternary – ΔG^binary): SPR; for Kd / koff / kon / t1/2 (dissociative half-life, ln2/koff): ternary (+ Brd4^BD2), 298.15 K; for dissociation kinetics faster than the VHL/MZ1/Brd4^BD2 complex: ternary complex with Brd4^BD2
T7 construct: VHL (54-213); Brd4BD2 (333-460); His6 with TEV cleavage site (N, cleaved yes); made in house; host or cells: E. coli BL21(DE3) (VCB)

VHL + Brd3^BD2 [7] = molecular target: T8, VHL + Brd3^BD2 (Homo sapiens, UniProt P40337+Q15059); experiment: SPR ternary binding of PROTAC:Brd3^BD2 complex to immobilized VHL
T8 construct: VHL (54-213); Brd3BD2 (306-416); His6 with TEV cleavage site (N, cleaved yes); made in house; host or cells: E. coli BL21(DE3) (VCB)

VHL + Brd3BD2E344G = molecular target: T9, VHL + Brd3BD2E344G (Homo sapiens, UniProt P40337+Q15059, E344G); experiment: SPR ternary binding of PROTAC:Brd3^BD2 E344G point mutant complex to immobilized VHL
T9 construct: VHL (54-213); Brd3BD2 (306-416); His6 with TEV cleavage site (N, cleaved yes); made in house; host or cells: E. coli BL21(DE3) (VCB)

VHL [8] = conditions: binary, ITC at 298.15 K, cited from earlier work
VHL [9] = molecular target: T10, VHL (Homo sapiens, UniProt P40337); experiment: SPR binary binding of PROTAC to immobilized VHL; conditions: binary (PROTAC alone), 285.15 K
T10 construct: VHL (54-213); His6 with TEV cleavage site (N, cleaved yes); made in house; host or cells: E. coli BL21(DE3)

VHL + Brd2^BD2 [10] = tested on: VHL + Brd2^BD2; set-up: method as in PMID 28288108; conditions: ternary + Brd2^BD2, ITC, ref [2]; cited from earlier work
VHL + Brd3^BD1 [11] = tested on: VHL + Brd3^BD1; set-up: method as in PMID 28288108; conditions: ternary + Brd3^BD1, ITC, ref [2]; cited from earlier work
VHL + Brd4^BD1 [12] = tested on: VHL + Brd4^BD1; set-up: method as in PMID 28288108; conditions: ternary + Brd4^BD1, ITC, ref [2]; cited from earlier work
VHL + Brd2^BD1 [13] = tested on: VHL + Brd2^BD1; set-up: method as in PMID 28288108; conditions: ternary + Brd2^BD1, ITC, ref [2]; cited from earlier work
VHL + Brd3^BD2 [14] = tested on: VHL + Brd3^BD2; set-up: method as in PMID 28288108; conditions: ternary + Brd3^BD2, ITC, ref [2]; cited from earlier work
[15] = ternary + Brd4^BD2, kinetic fit
[16] = ternary + Brd4^BD2, steady-state affinity fit (SSA)
[17] = steady-state affinity fit (SSA)

SMILES | binary target affinity (for Brd4) (Brd4^BD2) | α (cooperativity, KD^binary/KD^ternary) (VHL + Brd4^BD2 [6]; [15]) | Kd (VHL + Brd4^BD2 [6]; single-cycle, kinetic fit) [nM] | Kd (VHL [9]; multicycle, kinetic fit) [nM] | Kd (VHL + Brd4^BD2 [5]; ref [10]) [nM] | ΔΔG (ITC) (VHL + Brd4^BD2 [5]; ref [10]) | α (ITC) (VHL + Brd4^BD2 [5]; ref [10]) | ΔΔG (ΔG^ternary – ΔG^binary) (VHL + Brd4^BD2 [6]; [15]) | ΔΔG (ΔG^ternary – ΔG^binary) (VHL + Brd4^BD2 [6]; [16]) | α (cooperativity, KD^binary/KD^ternary) (VHL + Brd4^BD2 [6]; [16]) | koff (VHL + Brd4^BD2 [6]; single-cycle, kinetic fit) [s⁻¹] | kon (VHL + Brd4^BD2 [6]; single-cycle, kinetic fit) [M^–1 s^–1 × 10^5] | t1/2 (dissociative half-life, ln2/koff) (VHL + Brd4^BD2 [6]; single-cycle, kinetic fit) [s] | Kd (VHL + Brd4^BD2 [6]; [17]) [nM] | dissociation kinetics faster than the VHL/MZ1/Brd4^BD2 complex (VHL + Brd4^BD2 [6]) [fold] | Kd (VHL [8]; ref [10]) [nM] | Kd (VHL [9]; [17]) [nM] | further results
CC(=O)N[C@H](C(=O)N1C[C@H](O)C[C@H]1C(=O)NCc1ccc(-c2scnc2C)cc1)C(C)(C)SCCCCCCNC(=O)C[C@@H]1N=C(c2ccc(Cl)cc2)c2c(sc(C)c2C)-n2c(C)nnc21 [AT1] | weaker | 4.7 | 24 | 110 | – | – | – | – | – | – | – | – | – | – | – | – | – | ΔΔG (ΔG^ternary – ΔG^binary) (VHL + Brd2BD2G382E): +0.3 kcal/mol; α (cooperativity, KD^binary/KD^ternary) (VHL + Brd2BD2G382E): 0.7; ΔΔG (ΔG^ternary – ΔG^binary) (VHL + Brd4^BD1 [1]): +1.1 kcal/mol; α (cooperativity, KD^binary/KD^ternary) (VHL + Brd4^BD1 [1]): 0.2; α (cooperativity, KD^binary/KD^ternary) (VHL + Brd2^BD2 [2]; SPR, ternary + Brd2^BD2): 4.1; Kd (VHL + Brd2^BD2 [2]; ternary (+ Brd2^BD2), 298.15 K, single-cycle, kinetic fit): 27 nM; ΔΔG (ΔG^ternary – ΔG^binary) (VHL + Brd3^BD1 [3]): +0.2 kcal/mol; α (cooperativity, KD^binary/KD^ternary) (VHL + Brd3^BD1 [3]): 0.8; ΔΔG (ΔG^ternary – ΔG^binary) (VHL + Brd2^BD1 [4]): +0.9 kcal/mol; α (cooperativity, KD^binary/KD^ternary) (VHL + Brd2^BD1 [4]): 0.3; Kd (VHL + Brd4^BD2 [5]; ref [2]): 46 nM; ΔΔG (ΔG^ternary – ΔG^binary) (VHL + Brd4BD2G386E): +0.2 kcal/mol; α (cooperativity, KD^binary/KD^ternary) (VHL + Brd4BD2G386E): 0.8; ΔΔG (ΔG^ternary – ΔG^binary) (VHL + Brd3^BD2 [7]): +0.4 kcal/mol; α (cooperativity, KD^binary/KD^ternary) (VHL + Brd3^BD2 [7]): 0.7; α (cooperativity, KD^binary/KD^ternary) (VHL + Brd3BD2E344G): 3.4; Kd (VHL [8]; ref [2]): 335 nM
Cc1ncsc1-c1ccc(CNC(=O)[C@@H]2C[C@@H](O)CN2C(=O)[C@@H](NC(=O)COCCOCCOCCNC(=O)C[C@@H]2N=C(c3ccc(Cl)cc3)c3c(sc(C)c3C)-n3c(C)nnc32)C(C)(C)C)cc1 [MZ1] | – | – | – | – | – | – | – | – | – | – | – | – | – | – | – | – | – | ΔΔG (ITC) (VHL + Brd2^BD2 [10]): –0.5 ^d kcal/mol; α (ITC) (VHL + Brd2^BD2 [10]): 2.3 ^d; ΔΔG (ITC) (VHL + Brd3^BD1 [11]): –0.8 ^d kcal/mol; α (ITC) (VHL + Brd3^BD1 [11]): 3.5 ^d; ΔΔG (ITC) (VHL + Brd4^BD1 [12]): –0.5 ^d kcal/mol; α (ITC) (VHL + Brd4^BD1 [12]): 2.3 ^d; ΔΔG (ITC) (VHL + Brd2^BD1 [13]): –0.6 ^d kcal/mol; α (ITC) (VHL + Brd2^BD1 [13]): 2.9 ^d; ΔΔG (ITC) (VHL + Brd3^BD2 [14]): –1.5 ^d kcal/mol; α (ITC) (VHL + Brd3^BD2 [14]): 10.7 ^d
CC(=O)N1c2ccc(-c3ccc(C(=O)NCCOCCOCCOCCOCC(=O)N[C@H](C(=O)N4C[C@H](O)C[C@H]4C(=O)NCc4ccc(-c5scnc5C)cc4)C(C)(C)C)cc3)cc2[C@H](Nc2ccc(Cl)cc2)C[C@@H]1C [MZP55] | high | 0.4 | 185 | 69 | 183 | +0.3 ^e kcal/mol | 0.6 ^e | +0.7 kcal/mol | +0.5 kcal/mol | 0.5 | 0.47 | 27 | 1 | 134 | > 80 | 109 | 188 | ΔΔG (ITC) (VHL + Brd4^BD2 [5]; ref [10], listed as MZP 55): +0.3 kcal/mol; α (ITC) (VHL + Brd4^BD2 [5]; ref [10], listed as MZP 55): 0.6; koff (VHL [9]; multicycle, kinetic fit): 0.015 s⁻¹; kon (VHL [9]; multicycle, kinetic fit): 2.7 M^–1 s^–1 × 10^5; t1/2 (dissociative half-life, ln2/koff) (VHL [9]; multicycle, kinetic fit): 48 s
CC(=O)N1c2ccc(-c3ccc(C(=O)NCCOCCOCC(=O)N[C@H](C(=O)N4C[C@H](O)C[C@H]4C(=O)NCc4ccc(-c5scnc5C)cc4)C(C)(C)C)cc3)cc2[C@H](Nc2ccc(Cl)cc2)C[C@@H]1C [MZP61] | high | 0.2 | 465 | – | 781 | +1.1 ^e kcal/mol | 0.1 ^e | +1.0 kcal/mol | +0.6 kcal/mol | 0.4 | 1 | 30 | 1 | 248 | > 80 | 116 | 104 | ΔΔG (ITC) (VHL + Brd4^BD2 [5]; ref [10], listed as MZP 61): +1.1 kcal/mol
